Experimental data: ChEMBL document CHEMBL1153691, “2-Deoxyadenylyl-(35)-isodideoxyadenosine, a unique dinucleotide: Synthesis, enzymology, and conformational studies” (Bioorg Med Chem Lett, 1995)

Experiments:
[1] = tested on: bovine spleen phosphodiesterase; assay: Enzymatic stability was assessed with bovine spleen phosphodiesterase (BS PDE) exonuclase; assay type: ADME, Bos taurus; conditions: cattle, bovine spleen phosphodiesterase (BS PDE) exonuclease
[2] = tested on: snake venom phosphodiesterase; assay: Enzymatic stability was assessed with snake venom phosphodiesterase (SV PDE) exonuclase; assay type: ADME; conditions: serpentes, snake venom phosphodiesterase (SV PDE) exonuclease
[3] = molecular target: Human immunodeficiency virus type 1 reverse transcriptase (Human immunodeficiency virus 1, UniProt Q72547); assay: Inhibitory activity against HIV reverse transcriptase (HIV RT)

Compound	half-life [1] [min]	half-life [2] [min]	Ki [3] [µM]
Nc1ncnc2c1ncn2[C@@H]1CO[C@H](COP(=O)([O-])OC2C[C@H](n3cnc4c(N)ncnc43)OC2CO)C1.[Na+] (stereo not given in full)	50	> 550	–
Nc1ncnc2c1ncn2[C@H]1C[C@H](OP(=O)(O)OC[C@H]2O[C@@H](n3cnc4c(N)ncnc43)C[C@@H]2O)[C@@H](CO)O1	1.5	< 1	–
Nc1ncnc2c1ncn2C1COC(COP(=O)(O)OP(=O)(O)OP(=O)(O)O)C1 (stereo not given)	–	–	0.016
